# Measured values from patent US20230227449A1, “AMIDOPYRIMIDONE DERIVATIVES” (Hoffmann-La Roche Inc., priority 2020, published 2023).
# Biological target: Recombinant human Mat2a (Homo sapiens, UniProt P31153)
# Assay: Determination of Mat2A activity (384 well absorbance-based assay, Biomol Green)
# Assay type: biochemical
# Conditions: 12.5 nM Mat2A, 100 μM ATP and Methionine, 2% DMSO, 120 minutes at RT, absorbance at 635 nm
# In short: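 Recombinant human Mat2A (12.5 nM) was preincubated with compound for 15 min at RT in HEPES pH 7.5 buffer with 2% DMSO. The reaction was started with 100 μM each of ATP and methionine and ran 120 min at RT. Phosphate was detected with Biomol Green by absorbance at 635 nm.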
# Chain of Recombinant human Mat2a (P31153 whole entry): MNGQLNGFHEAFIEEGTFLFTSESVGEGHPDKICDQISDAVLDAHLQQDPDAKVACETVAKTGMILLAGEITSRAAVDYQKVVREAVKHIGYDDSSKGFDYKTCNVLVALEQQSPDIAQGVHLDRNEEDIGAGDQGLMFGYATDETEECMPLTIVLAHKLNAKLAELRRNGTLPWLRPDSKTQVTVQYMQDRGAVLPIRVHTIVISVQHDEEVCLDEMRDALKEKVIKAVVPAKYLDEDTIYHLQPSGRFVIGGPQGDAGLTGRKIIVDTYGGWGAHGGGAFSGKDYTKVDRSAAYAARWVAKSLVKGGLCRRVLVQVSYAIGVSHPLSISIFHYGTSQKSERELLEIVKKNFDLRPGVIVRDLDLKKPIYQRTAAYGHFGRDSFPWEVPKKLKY
row,IC50,SMILES
1,< 0.013 µM,"N#Cc1cccc(-n2c(=O)nc(N)c3ccc(C4CC4)nc32)c1Cl [Example 143, 3-(4-amino-7-cyclopropyl-2-oxopyrido[2,3-d]pyrimidin-1 (2H)-yl)-2-chlorobenzonitrile]"
2,< 0.013 µM,"Cc1ccccc1-n1c(=O)nc(N)c2ccc(OC(F)F)cc21 [Example 144, 4-amino-7-(difluoromethoxy)-1-(o-tolyl)quinazolin-2 (1H)-one]"
3,0.031 µM,"Nc1nc(=O)n(-c2ccc(F)c(F)c2)c2nc(C3CC3)ccc12 [Example 147, 4-amino-7-cyclopropyl-1-(3,4-difluorophenyl)pyrido[2,3-d]pyrimidin-2 (1H)-one]"
4,0.024 µM,"Nc1nc(=O)c(-c2ccccc2Cl)c2cc(C(F)(F)F)ccn12 [Example 149, 1-amino-4-(2-chlorophenyl)-6-(trifluoromethyl)pyrido[1,2-c]pyrimidin-3-one]"
5,0.13 µM,"Nc1nc(=O)n(C2CCCOC23CC3)c2cc(OC(F)F)ccc12 (centres unmarked) [Example 150, 4-amino-7-(difluoromethoxy)-1-(4-oxaspiro[2.5]octan-8-yl)quinazolin-2 (1H)-one]"
6,< 0.013 µM,"N#Cc1cccc(-n2c(=O)nc(N)c3ccc(C4CC4)nc32)c1 [Example 151, 3-(4-amino-7-cyclopropyl-2-oxopyrido[2,3-d]pyrimidin-1 (2H)-yl)benzonitrile]"
7,0.014 µM,"Nc1nc(=O)n(-c2cccc(Cl)c2)c2nc(C3CC3)ccc12 [Example 152, 4-amino-1-(3-chlorophenyl)-7-cyclopropylpyrido[2,3-d]pyrimidin-2 (1H)-one]"
8,0.017 µM,"CCNc1ccc2c(N)nc(=O)n(-c3ccccc3C)c2c1 [Example 153, 4-amino-7-(ethylamino)-1-(o-tolyl)quinazolin-2-one]"
9,0.02 µM,"Nc1nc(=O)n(-c2cc(F)ccc2F)c2nc(C3CC3)ccc12 [Example 154, 4-amino-7-cyclopropyl-1-(2,5-difluorophenyl)pyrido[2,3-d]pyrimidin-2 (1H)-one]"
10,0.016 µM,"Nc1nc(=O)n(-c2ccc(F)cc2Cl)c2nc(C3CC3)ccc12 [Example 155, 4-amino-1-(2-chloro-4-fluorophenyl)-7-cyclopropylpyrido[2,3-d]pyrimidin-2 (1H)-one]"
11,0.021 µM,"Nc1nc(=O)n(-c2cc(F)ccc2Cl)c2nc(C3CC3)ccc12 [Example 156, 4-amino-1-(2-chloro-5-fluorophenyl)-7-cyclopropylpyrido[2,3-d]pyrimidin-2-one]"
12,0.015 µM,"Nc1nc(=O)n(-c2cccc3c2CCN3)c2nc(C3CC3)ccc12 [Example 157, 4-amino-7-cyclopropyl-1-(2,3-dihydro-1H-indol-4-yl)pyrido[2,3-d]pyrimidin-2-one]"
13,0.025 µM,"Cc1c(C#N)cccc1-n1c(=O)nc(N)c2ccc(OC(F)(F)F)cc21 [Example 158, 3-[4-amino-2-oxo-7-(trifluoromethoxy)quinazolin-1-yl]-2-methylbenzonitrile]"
14,0.019 µM,"Cc1c(F)cccc1-n1c(=O)nc(N)c2ccc(OC(F)(F)F)cc21 [Example 159, 4-amino-1-(3-fluoro-2-methylphenyl)-7-(trifluoromethoxy)quinazolin-2-one]"
15,0.018 µM,"Nc1nc(=O)n(-c2cccc3c2CCO3)c2cc(OC(F)(F)F)ccc12 [Example 160, 4-amino-1-(2,3-dihydro-1-benzofuran-4-yl)-7-(trifluoromethoxy)quinazolin-2-one]"
16,< 0.013 µM,"Nc1nc(=O)n(-c2cccc(Cl)c2F)c2nc(C3CC3)ccc12 [Example 161, 4-amino-1-(3-chloro-2-fluorophenyl)-7-cyclopropylpyrido[2,3-d]pyrimidin-2-one]"
17,< 0.013 µM,"Nc1nc(=O)n(-c2cccc3c2CCO3)c2nc(C(F)(F)F)ccc12 [Example 162, 4-amino-1-(2,3-dihydrobenzofuran-4-yl)-7-(trifluoromethyl)pyrido[2,3-d]pyrimidin-2 (1H)-one]"
18,0.031 µM,"Nc1nc(=O)n(-c2cccc(OC(F)(F)F)n2)c2nc(C3CC3)ccc12 [Example 163, 4-amino-7-cyclopropyl-1-[6-(trifluoromethoxy)pyridin-2-yl]pyrido[2,3-d]pyrimidin-2-one]"
19,< 0.013 µM,"Nc1nc(=O)n(-c2cccc3[nH]ccc23)c2nc(C3CC3)ccc12 [Example 164, 4-amino-7-cyclopropyl-1-(1H-indol-4-yl)pyrido[2,3-d]pyrimidin-2-one]"
20,< 0.013 µM,"Cc1c(F)cccc1-n1c(=O)nc(N)c2ccc(C(F)(F)F)nc21 [Example 165, 4-amino-1-(3-fluoro-2-methylphenyl)-7-(trifluoromethyl)pyrido[2,3-d]pyrimidin-2 (1H)-one]"
